We go through one molecule from patent US6956030B2, “Use of mometasone furoate for treating upper airway diseases” (Schering Corporation, priority 1994, dated 2005).

Where two headings read alike, the source gives them in different places.

In data set [1] the test system is patients with asthma requiring treatment with inhaled corticosteroids. Nature of the data set: Randomized double-blinded multicenter Phase II study, MDI BID for 4 weeks. Type of data set: in vivo. The method, then:
In a recently completed, randomized, double-blinded multicenter, Phase II study, 395 patients with asthma requiring treatment with inhaled corticosteroids were randomized to one of the five treatment groups: mometasone furoate (MDI 112 mcg/day, 400 mcg/day or 1000 mcg/day, beclomethasone dipropionate (BDP) 336 mcg/day, or placebo. All treatment regimens consisted of BID dosing for 4 weeks. PROVENTIL inhalation aerosol (albuterol, USP) was supplied as rescue medication.
Efficacy was evaluated by spirometry and by physician and patient evaluation of asthma signs and symptoms. The forced expiratory volume in one second (FEV1), forced vital capacity (FVC), and forced expiratory flow between 25% to 75% (FEF25%−75%) were measured at each visit by the investigator. The peak expiratory flow rate (PEFR) was measured twice daily (AM and PM) by the patient. FEV1 at endpoint of treatment (last evaluable visit) was the primary measure of efficacy. The investigator (at all visits) and the patient (twice daily) rated wheezing, tightness in chest, shortness of breath, and cough on a scale from 0 (None) to 6 (Incapacitating). In addition, the investigator rated the overall condition of asthma on the same scale at each visit, and the patient kept a diary of the total number of asthma attacks each day, the number of night awakenings due to asthma, and the total number of puffs of Proventil (protocol-permitted rescue medication) used. The actual value and changes from Baseline were analyzed for each visit.

Another data set relates to plasma cortisol. Nature of the data set: Phase I rising single-dose safety and tolerance study, metered dose inhaler, 24-hour plasma cortisol. Type of data set: in vivo, healthy male volunteers. The method, then: Several Phase I studies were conducted using mometasone furoate formulated for delivery as a suspension in a pressurized metered dose inhaler (MDI). In a randomized, third-party blinded, placebo-controlled rising single-dose safety and tolerance study, aerosolized mometasone furoate was administered by a metered dose inhaler to eight healthy male volunteers. Doses were administered at 11 p.m. and plasma cortisol concentrations were measured during the following 24-hour period.

For data set [2], the system named is patients with seasonal allergic rhinitis. Kind of data set: Dose ranging safety and efficacy study, aqueous nasal spray, 4 weeks. The note with it: nasal spray 50, 100, 200, 800 mcg/day. Type of data set: in vivo. The text has this:
In treating allergic and non-allergic rhinitis, the aqueous suspension of mometasone furoate may be administered intranasally by inserting an appropriate device (such as the pump spray bottle used to deliver Vancenase AQ® Nasal Spray as well as the spray bottle disclosed in the Schering Corporation Industrial Design Deposit DM/026304 registered Jun. 1, 1993) into each nostril. Active drug is then expelled (nasal spray device) or could be nasally inhaled (sniffed) as a powder. Efficacy is generally assessed in a double blind fashion by a reduction in nasal symptoms (e.g., sneezing, itching, congestion, and discharge). Other objective measurements (e.g., nasal peak flow and resistance) can be used as supportive indices of efficacy.
In a dose ranging safety and efficacy study, the mometasone furoate aqueous nasal spray formulation at doses of 50 mcg/day, 100 mcg/day, 200 mcg/day, 800 mcg/day or placebo was administered to 480 patients with seasonal allergic rhinitis for 4 weeks.

Data set [3] deals with patients with mild asthma.
A short description of data set [4]: Drug metabolism/clinical pharmacology study: absorption and excretion of total radioactivity after ^3H-MF by various routes. Type of data set: in vivo, normal healthy male volunteers. On the procedure:
In addition, a single-dose absorption, excretion and metabolism study using 200 mcg of ^3H-mometasone furoate as the nasal spray formulation was conducted in 6 normal male volunteers. When systemic absorption (based on urinary excretion) was compared to an intravenously administered dose of ^3H-mometasone furoate, it was 8%.
A drug metabolism and clinical pharmacology study was conducted by administering (by various routes) tritium-labeled mometasone furoate (“^3H-MF”) to 6 groups of 6 normal male volunteers in each group. Blood and urine samples were collected for measurement of total drug (including metabolites).
The objectives of these studies in male volunteers were to determine the absorption, metabolism and excretion of ^3H-labeled mometasone furoate (“^3H-MF”) following administration by oral swallow as a solution and as an aqueous suspension of the monohydrate, by oral inhalation as a suspension from a standard metered dose inhaler (MDI) and from a metered dose inhaler containing a spacer device (Gentlehaler), by nasal inhalation as an aqueous suspension of the mometasone furoate monohydrate from a nasal spray unit and by intravenous injection as a solution.
Thirty-six (n=6 per treatment group) normal healthy male volunteers between the ages of 19 and 40 yr. (average 29 yr.) having weights in accordance with current actuarial tables (+10%) were enrolled in these single dose studies. All subjects were determined to be in good health by their medical history, physical examinations, clinical and laboratory tests.
(§1) Plasma, urine, expired air filters, Respirgard and fecal samples were collected and assayed for radioactivity content. The limit of quantitation (LOQ) for plasma radioactivity ranged from 0.103 to 0.138 ng eq/ml., except for the nasal spray treatment where the LOQ was 0.025 ng eq/ml. Selected plasma, urine and fecal samples were analyzed for metabolite profiles.
Pharmacokinetics—The mean (n=6) plasma concentrations of total radioactivity are illustrated in Summary FIG. 1 and the mean (n=6) pharmacokinetic parameters derived from total plasma radioactivity are presented in Table 2.

Data set [5] is described as follows: HPLC/radio-flow metabolite profiling of plasma, urine and fecal extracts after ^3H-MF. Type of data set: in vivo, normal healthy male volunteers.
Source text: The substantial minimization of the systemic effect of mometasone furoate administered intranasally or by oral inhalation has been measured by High Performance Liquid Chromatography (HPLC) metabolite profiling of plasma radioactivity of mometasone furoate, its substantially complete (>98%) first-pass metabolism in the liver and by a minimal reduction in cortisol secretion levels.
as §1
Selected plasma, urine and fecal extracts were analyzed by high performance liquid chromatography (HPLC) with radio-flow monitoring to determine metabolite profiles. […] Approximately 1.5% of the 3 hr. plasma radioactivity was associated with parent drug indicating extensive first past metabolism and rapid inactivation by the liver. In contrast, following intravenous administration, approximately 39% of the 3 hr. plasma radioactivity was associated with parent drug. Approximately 12% and 33% of the 3 hr. plasma radioactivity was associated with parent drug following administration of the MDI and Gentlehaler, respectively. In general, the plasma concentrations of radioactivity following the nasal and oral suspension routes of administration were too low for metabolite profiling.
Hydrolysis of plasma and urine was performed with an enzyme preparation containing both β-glucuronidase and aryl sulfatase. These experiments yielded modest changes in the HPLC metabolite profiles that were consistent with the hydrolytic release of conjugated metabolites.

Consider `C[C@@H]1C[C@H]2[C@@H]3CCC4=CC(=O)C=C[C@]4(C)[C@@]3(Cl)[C@@H](O)C[C@]2(C)[C@@]1(OC(=O)c1ccco1)C(=O)CCl` [mometasone furoate], for which the “total asthma scores, assessment of overall condition, therapeutic response” value in data set [1] (all doses) is reported as “superiority of all mometasone furoate doses relative to placebo”. Moreover, the “improvement of a.m. PEFR versus BDP” value in data set [1] (all doses, final week of treatment) was “significantly better than 336 mg dose of BDP”. In addition, the “FEV1 versus BDP 336 mcg/day” value in data set [1] (two higher doses (400, 1000 mcg/day), Days 14, 21 and 28) is on record as “superior to beclomethasone dipropionate”. In data set [1] (two higher doses, Day 21 and Day 28), the “FEV1 versus low dose (112 mcg/day)” value is “significantly superior to the low mometasone furoate dose”. In addition, the “reduction of 24-hour area under the curve plasma cortisol profile (AUC 0-24) compared to placebo” value in the data set with plasma cortisol (single dose 1000 mcg by MDI at 11 p.m.) amounted to 13%; with plasma cortisol (single dose 2000 mcg by MDI at 11 p.m.), 23%; with plasma cortisol (single dose 4000 mcg by MDI at 11 p.m.) it was 36%. Further, the “efficacy relative to placebo” value in data set [2] is on record as “effective relative to placebo”. The tolerability result in data set [2] was “well tolerated”. Besides, in data set [3] (1 mg/day group, day 1), the “FEV1 compared to placebo” value is recorded as “statistically significant, clinically meaningful improvement”. Further, in data set [3] (1, 2 and 4 mg/day groups, every time point day 3 to day 28), the “mean increase in FEV1 versus placebo” value was “statistically significantly greater than for the placebo group”. Further, the “8 a.m. plasma cortisol” value was “small decreases from Baseline on Days 15 and 21” in data set [3] (1000 mcg or 2000 mcg daily, statistically significant compared to placebo); “greater decreases in plasma cortisol” in data set [3] (4000 mcg daily, statistically different from placebo Day 3 through Day 28). Also, in data set [3] (at a majority of time points), the “increase in FEV1 from Baseline” value is on record as no less than 15%. In data set [3] (in vivo), the “response to ACTH infusion at post-treatment (Day 30)” value is “significant increases from Baseline in plasma cortisol”. For the same molecule, in data set [3] (three treated groups, MDI twice daily), the “pulmonary function measured by FEV1” value is reported as “clinically meaningful increases in pulmonary function”. In addition, the safety and tolerability entry in data set [4] (all dosage forms, single dose) was “safe and well tolerated”. The bioavailability in data set [4] (male, human, plasma, inhaled or intranasal, 200 ug, nasal spray 200 mcg, single dose, read-out: bioavailability of mometasone furoate) is less than 1%; in data set [5] (male, human, plasma, 1.03 mg/Subject, oral solution, extensive first pass metabolism, read-out: absolute bioavailability of unchanged mometasone furoate), less than 1%. Also, the “parent drug which reaches the bloodstream from the gastrointestinal tract” value in data set [4] (swallowed as oral suspension or by oral or nasal inhalation) was “less than 1%”. Moreover, the extent of metabolism result in data set [5] (all routes of administration) is on record as “extensively metabolized”. Further, the “first-pass metabolism in the liver” value in data set [5] (in vivo) is recorded as greater than 98%. The “detection of parent drug in plasma by metabolite profiling” value in data set [5] (intravenous injection or oral solution, not after oral or nasal suspensions) is on record as “detectable in plasma by metabolite profiling”.
